Data on 18 compounds can be found in US20240228488A1 (TAKEDA PHARMACEUTICAL COMPANY LIMITED, priority 2021, published 2024).

SMILES strings stand for the structures. pEC50: −log10 of the molar value.

For orientation: pEC50 means the EC50 on a negative log10 scale, so that one unit is a factor of ten.

This test deals with human activated kallikrein enzyme (Homo sapiens, UniProt P03952). The test can be described thus: Plasma kallikrein inhibition, fluorogenic PFR-AMC substrate, 500 pM activated kallikrein format. Format: biochemical. As to conditions: 500 pM activated kallikrein, 300 uM PFR-AMC, 30 min preincubation, 10 min reaction; read-out: Primary Dose Response Assay: Average EC50. A digest of the protocol: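 Fluorescence (ex 380/em 460 nm) is read after 10 min of 300 uM PFR-AMC turnover by 500 pM enzyme at RT. Compounds sit with enzyme for 30 min beforehand. Buffer is Tris (pH 7.5) with EDTA, NaCl, PEG-400 and Triton X-100; EC50 values are banded.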
Chain of human activated kallikrein enzyme (P03952 391-638 limits assumed): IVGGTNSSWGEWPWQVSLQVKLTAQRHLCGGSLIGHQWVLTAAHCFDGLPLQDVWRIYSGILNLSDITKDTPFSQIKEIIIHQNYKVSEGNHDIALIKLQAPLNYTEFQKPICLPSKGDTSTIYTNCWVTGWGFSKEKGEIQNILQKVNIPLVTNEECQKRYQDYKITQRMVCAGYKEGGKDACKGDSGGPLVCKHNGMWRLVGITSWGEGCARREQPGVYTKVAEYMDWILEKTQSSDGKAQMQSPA
Chain of human activated kallikrein enzyme (P03952 20-390 partner limits assumed): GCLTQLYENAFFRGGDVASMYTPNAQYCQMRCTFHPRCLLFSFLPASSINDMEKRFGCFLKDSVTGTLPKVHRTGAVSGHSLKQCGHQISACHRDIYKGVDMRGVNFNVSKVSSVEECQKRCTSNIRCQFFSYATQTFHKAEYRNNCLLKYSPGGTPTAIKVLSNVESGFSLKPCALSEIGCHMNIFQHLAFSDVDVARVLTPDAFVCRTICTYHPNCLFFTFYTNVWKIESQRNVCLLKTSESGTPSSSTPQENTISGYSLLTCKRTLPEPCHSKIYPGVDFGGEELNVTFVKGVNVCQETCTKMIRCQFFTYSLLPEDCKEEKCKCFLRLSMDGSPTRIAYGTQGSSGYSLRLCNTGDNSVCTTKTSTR
`O=C(Nc1cc(NCc2cn3cc(C4CC4)cc(OCc4ccccc4)c3n2)ncn1)[C@H]1C[C@@H]1c1cccc(Cl)c1` [Example I-148, (1S,2S)-N-(6-(((8-(benzyloxy)-6-cyclopropylimidazo[1,2-a]pyridin-2-yl)methyl)amino)pyrimidin-4-yl)-2-(3-chlorophenyl)cyclopropane-1-carboxamide]: the pEC50 was 7.00 to 8.00.

With `O=C1CN(c2cc(C3CC3)cn3cc(CNc4cc(NC(=O)[C@H]5C[C@@H]5c5cccc(Cl)c5)ncn4)nc23)CCN1` [Example I-149, (1S,2S)-2-(3-chlorophenyl)-N-(6-(((6-cyclopropyl-8-(3-oxopiperazin-1-yl)imidazo[1,2-a]pyridin-2-yl)methyl)amino)pyrimidin-4-yl)cyclopropane-1-carboxamide], the negative logarithm of the EC50 (pEC50) was 8.00 to 9.00.

Turning to `COc1ncccc1-c1cc(C2CC2)cn2cc(CNc3cc(NC(=O)[C@H]4C[C@@H]4c4cccc(Cl)c4)ncn3)nc12` [Example I-150, (1S,2S)-2-(3-chlorophenyl)-N-(6-(((6-cyclopropyl-8-(2-methoxypyridin-3-yl)imidazo[1,2-a]pyridin-2-yl)methyl)amino)pyrimidin-4-yl)cyclopropane-1-carboxamide], the pEC50 is 7.00 to 8.00.

Take `O=C(Nc1cc(NCc2nc3ccc(C4CC4)cn3c2F)ncn1)[C@H]1C[C@@H]1c1cccc(Cl)c1` [Example I-152, (1S,2S)-2-(3-chlorophenyl)-N-(6-(((6-cyclopropyl-3-fluoroimidazo[1,2-a]pyridin-2-yl)methyl)amino)pyrimidin-4-yl)cyclopropane-1-carboxamide]: the pEC50 was 7.00 to 8.00.

Take `O=C(Nc1cc(NCc2cn3cc(C4CC4)cc(N4CCOCC4)c3n2)ncn1)[C@H]1C[C@@H]1c1cccc(Cl)c1` [Example I-154, (1S,2S)-2-(3-chlorophenyl)-N-(6-(((6-cyclopropyl-8-morpholinoimidazo[1,2-a]pyridin-2-yl)methyl)amino)pyrimidin-4-yl)cyclopropane-1-carboxamide]: the pEC50 is 8.00 to 9.00.

In the case of `CC(C)(C)OC(=O)Nc1cc(C2CC2)cn2cc(CNc3cc(NC(=O)[C@H]4C[C@@H]4c4cccc(Cl)c4)ncn3)nc12` [Example I-156, tert-butyl (2-(((6-((15,2S)-2-(3-chlorophenyl)cyclopropane-1-carboxamido)pyrimidin-4-yl)amino)methyl)-6-cyclopropylimidazo[1,2-a]pyridin-8-yl)carbamate], the pEC50 was 6.00 to 7.00.

In the case of `O=C(Nc1cc(NCc2cn3cc(C4CC4)cc(N4CCCC4C(F)(F)F)c3n2)ncn1)[C@H]1C[C@@H]1c1cccc(Cl)c1` (stereo partly drawn) [Example I-158, (1S,2S)-2-(3-chlorophenyl)-N-(6-(((6-cyclopropyl-8-(2-(trifluoromethyl)pyrrolidin-1-yl)imidazo[1,2-a]pyridin-2-yl)methyl)amino)pyrimidin-4-yl)cyclopropane-1-carboxamide], the pEC50 is 6.00 to 7.00.

Take `CC(C)c1ccc2nc(CNc3cc(NC(=O)[C@H]4C[C@@H]4c4cccc(Cl)c4)ncn3)cn2c1` [Example I-160, (1S,2S)-2-(3-chlorophenyl)-N-(6-(((6-isopropylimidazo[1,2-a]pyridin-2-yl)methyl)amino)pyrimidin-4-yl)cyclopropane-1-carboxamide]: the pEC50 is 7.00 to 8.00.

For the compound `CN1CC(=O)N(c2cc(C3CC3)cn3cc(CNc4cc(NC(=O)[C@H]5C[C@@H]5c5cccc(Cl)c5)ncn4)nc23)C1=O` [Example I-171, (1S,2S)-2-(3-chlorophenyl)-N-(6-(((6-cyclopropyl-8-(3-methyl-2,5-dioxoimidazolidin-1-yl)imidazo[1,2-a]pyridin-2-yl)methyl)amino)pyrimidin-4-yl)cyclopropane-1-carboxamide], the pEC50 is 8.00 to 9.00.

In the case of `O=C([C@H]1C[C@@H]1c1cccc(Cl)c1)N(O)c1cc(NCc2cn3cc(C4CC4)ccc3n2)ncn1` [Example I-175, (1S,2S)-2-(3-chlorophenyl)-N-(6-(((6-cyclopropylimidazo[1,2-a]pyridin-2-yl)methyl)amino)pyrimidin-4-yl)-N-hydroxycyclopropane-1-carboxamide], the pEC50 is less than 5.22.

Take `O=C(Nc1cc(NCc2cn3cc(C4CC4)cc(N4CCN5CC(F)(F)CC5C4)c3n2)ncn1)[C@H]1C[C@@H]1c1cccc(Cl)c1` (stereo partly drawn) [Example I-197, (1S,2S)-2-(3-chlorophenyl)-N-(6-(((6-cyclopropyl-8-(7,7-difluorohexahydropyrrolo[1,2-a]pyrazin-2(1H)-yl)imidazo[1,2-a]pyridin-2-yl)methyl)amino)pyrimidin-4-yl)cyclopropane-1-carboxamide]: the pEC50 was 7.00 to 8.00.

Consider `O=C(Nc1cc(NCc2cn3cc(C4CC4)cc(N4CCN(C5CC5)CC4)c3n2)ncn1)[C@H]1C[C@@H]1c1cccc(Cl)c1` [Example I-201, (1S,2S)-2-(3-chlorophenyl)-N-(6-(((6-cyclopropyl-8-(4-cyclopropylpiperazin-1-yl)imidazo[1,2-a]pyridin-2-yl)methyl)amino)pyrimidin-4-yl)cyclopropane-1-carboxamide], for which the pEC50 is 8.00 to 9.00.

Turning to `O=C(Nc1cc(NCc2cn3cc(Cl)ccc3n2)ncn1)[C@H]1C[C@@H]1c1cccc(Cl)c1` [Example I-203, (1S,2S)-N-(6-(((6-chloroimidazo[1,2-a]pyridin-2-yl)methyl)amino)pyrimidin-4-yl)-2-(3-chlorophenyl)cyclopropane-1-carboxamide], the pEC50 was 7.00 to 8.00.

As to `CN(C)c1ccc2nc(CNc3cc(NC(=O)[C@H]4C[C@@H]4c4cccc(Cl)c4)ncn3)cn2c1` [Example I-205, (1S,2S)-2-(3-chlorophenyl)-N-(6-(((6-(dimethylamino)imidazo[1,2-a]pyridin-2-yl)methyl)amino)pyrimidin-4-yl)cyclopropane-1-carboxamide], the pEC50 was 7.00 to 8.00.

With `CC(C)(C)OC(=O)N1CC(c2cc(C3CC3)cn3cc(CNc4ccnc(NC(=O)[C@H]5C[C@@H]5c5cccc(Cl)c5)c4)nc23)C1` [Example I-226, tert-butyl 3-(2-(((2-((1S,2S)-2-(3-chlorophenyl)cyclopropane-1-carboxamido)pyridin-4-yl)amino)methyl)-6-cyclopropylimidazo[1,2-a]pyridin-8-yl)azetidine-1-carboxylate], the pEC50 was 7.00 to 8.00.

As to `O=C(Nc1cc(NCc2cn3cc(C4CC4)cc(N4CCN5CC(F)(F)CC5C4)c3n2)ccn1)[C@H]1C[C@@H]1c1cccc(Cl)c1` (stereo partly drawn) [Example I-230, (1S,2S)-2-(3-chlorophenyl)-N-(4-(((6-cyclopropyl-8-(7,7-difluorohexahydropyrrolo[1,2-a]pyrazin-2(1H)-yl)imidazo[1,2-a]pyridin-2-yl)methyl)amino)pyridin-2-yl)cyclopropane-1-carboxamide], the pEC50 is 8.00 to 9.00.

As for `CCOC(=O)Cc1cc(C2CC2)cn2cc(CNc3ccnc(NC(=O)[C@H]4C[C@@H]4c4cccc(Cl)c4)c3)nc12` [Example I-241, ethyl 2-(2-(((2-((1S,2S)-2-(3-chlorophenyl)cyclopropane-1-carboxamido)pyridin-4-yl)amino)methyl)-6-cyclopropylimidazo[1,2-a]pyridin-8-yl)acetate], the pEC50 is more than 9.00.

Regarding `Cc1ccnc([C@H]2C[C@@H]2C(=O)Nc2cc(N[C@H](C)c3cn4cc(C5CC5)cc(N5CC6(CN(C)C6)N(C)C5=O)c4n3)ncn2)n1` [Example I-245, (1S,2S)-N-(6-(((R)-1-(6-cyclopropyl-8-(2,5-dimethyl-6-oxo-2,5,7-triazaspiro[3.4]octan-7-yl)imidazo[1,2-a]pyridin-2-yl)ethyl)amino)pyrimidin-4-yl)-2-(4-methylpyrimidin-2-yl)cyclopropane-1-carboxamide], the pEC50 was more than 9.00.
